The values that follow are results of earlier work, collected in publication PMC5152921, “Evolutionary and Functional Diversification of the Vitamin D Receptor-Lithocholic Acid Partnership” (PLoS ONE, 2016).

The test system of the data set is all eight VDRs tested. Details: method as in PMID 25279795, PMID 25855982. The following applies: transient transactivation assays; cited from earlier work.

For `C=C1/C(=C\C=C2/CCC[C@]3(C)[C@@H]([C@H](C)CCCC(C)(C)O)CC[C@@H]23)C[C@@H](O)C[C@@H]1O` [1,25D3, 1α,25-dihydroxyvitamin D3], the VDR transactivation entry is “activates all eight VDRs tested”.
